Test results from patent publication US20240199623A1 (ILDONG PHARMACEUTICAL CO., LTD., priority 2020, published 2024).

Biological target: human wild type-CFTR (Homo sapiens, UniProt P13569)
Assay: Cell-based YFP assay
Set-up: expressed in transfected cells; host or cells: CHO-K1 (Chinese hamster ovary)
Conditions: CHO-K1 cells expressing human wild type-CFTR and YFP-H148Q/I152L; forskolin 20 μM = 100% activity; read-out: Cell-based YFP Assay (EC50) Concentration Range
Method in brief: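 I⁻-driven YFP fluorescence quenching at 37 °C: 2 s baseline, addition of 140 mM iodide solution, then 14 s of readings at 0.4 s intervals. Cells were CHO-K1 expressing human wild-type CFTR plus YFP-H148Q/I152L. EC50 derived from averaged triplicates.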

human wild type-CFTR, sequence (P13569 whole entry): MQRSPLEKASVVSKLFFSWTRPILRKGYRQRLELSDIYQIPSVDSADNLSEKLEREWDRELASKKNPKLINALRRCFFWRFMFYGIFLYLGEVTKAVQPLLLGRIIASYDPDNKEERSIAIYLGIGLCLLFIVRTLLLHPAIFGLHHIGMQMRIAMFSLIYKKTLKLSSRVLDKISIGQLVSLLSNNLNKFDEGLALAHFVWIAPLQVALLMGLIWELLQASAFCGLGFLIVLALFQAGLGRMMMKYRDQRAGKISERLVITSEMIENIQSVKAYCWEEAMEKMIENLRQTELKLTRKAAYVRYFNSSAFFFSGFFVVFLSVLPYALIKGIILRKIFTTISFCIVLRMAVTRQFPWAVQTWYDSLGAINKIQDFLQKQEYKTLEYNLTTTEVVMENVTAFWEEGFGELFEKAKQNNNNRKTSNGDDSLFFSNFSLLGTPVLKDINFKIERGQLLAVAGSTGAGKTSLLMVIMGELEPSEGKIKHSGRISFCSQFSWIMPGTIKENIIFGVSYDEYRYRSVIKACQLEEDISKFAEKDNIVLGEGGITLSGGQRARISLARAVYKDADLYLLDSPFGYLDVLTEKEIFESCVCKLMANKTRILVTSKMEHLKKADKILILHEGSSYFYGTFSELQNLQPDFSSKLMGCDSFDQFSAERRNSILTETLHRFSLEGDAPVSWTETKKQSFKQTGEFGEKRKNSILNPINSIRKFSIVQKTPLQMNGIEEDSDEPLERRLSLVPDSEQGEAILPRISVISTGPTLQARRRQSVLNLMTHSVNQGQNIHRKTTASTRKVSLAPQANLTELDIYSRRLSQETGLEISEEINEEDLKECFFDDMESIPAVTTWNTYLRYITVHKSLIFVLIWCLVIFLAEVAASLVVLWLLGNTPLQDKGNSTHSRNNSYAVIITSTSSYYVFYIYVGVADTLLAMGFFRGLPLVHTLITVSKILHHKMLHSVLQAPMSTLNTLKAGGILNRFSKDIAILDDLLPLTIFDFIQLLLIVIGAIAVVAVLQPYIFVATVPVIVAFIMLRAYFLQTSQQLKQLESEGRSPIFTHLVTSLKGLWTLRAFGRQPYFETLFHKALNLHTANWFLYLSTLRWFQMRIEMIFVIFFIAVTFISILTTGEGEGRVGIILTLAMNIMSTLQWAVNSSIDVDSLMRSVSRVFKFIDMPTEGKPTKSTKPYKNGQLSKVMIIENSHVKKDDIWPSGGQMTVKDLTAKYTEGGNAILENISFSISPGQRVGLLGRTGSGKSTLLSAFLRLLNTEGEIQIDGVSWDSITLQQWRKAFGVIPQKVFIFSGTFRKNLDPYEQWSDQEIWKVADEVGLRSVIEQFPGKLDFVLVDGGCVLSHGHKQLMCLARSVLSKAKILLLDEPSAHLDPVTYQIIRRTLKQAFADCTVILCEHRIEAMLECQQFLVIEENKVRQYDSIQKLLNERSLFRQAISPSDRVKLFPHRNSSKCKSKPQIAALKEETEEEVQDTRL

| Structure (SMILES) | EC50 |
| --- | --- |
| CCCOc1ccc(NC(=O)c2cc3nccc(-c4ccc(OC)c(OC)c4)n3n2)cc1 [Compound 230, 7-(3,4-dimethoxyphenyl)-N-(4-propoxyphenyl)pyrazolo [1,5-a]pyrimidine-2-carboxamide] | < 200 nM |
| COC(=O)c1cc2nccc(-c3ccc(OC)c(OC)c3)n2n1 [Compound 4] | 200 to 2000 nM |
| COc1ccc(-c2ccnc3cc(C(=O)N4CC(NC(=O)OC(C)(C)C)C4)nn23)cc1OC [Compound 116, tert-butyl (1-(7-(3,4-dimethoxyphenyl)pyrazolo [1,5-a]pyrimidine-2-carbonyl)azetidin-3-yl) carbamate] | 200 to 2000 nM |
| COc1ccc(-c2ccnc3cc(C(=O)Nc4ccc(C(=O)NCCN(C(C)C)C(C)C)cc4)nn23)cc1OC [Compound 120, N-(4-((2-(diisopropylamino)ethyl)carbamoyl)phenyl)-7-(3,4-dimethoxyphenyl) pyrazolo[1,5-a]pyrimidine-2-carboxamide] | < 200 nM |
| COc1ccc(-c2ccnc3cc(C(=O)N4CCN(c5ccccn5)CC4)nn23)cc1OC [Compound 153, (7-(3,4-dimethoxyphenyl)pyrazolo[1,5-a]pyrimidin-2-yl)(4-(pyridin-2-yl)piperazin-1-yl)methanone] | 200 to 2000 nM |
| COc1ccc(-c2ccnc3cc(C(=O)N4CCN(C(=O)C5CC5)CC4)nn23)cc1OC [Compound 110, (4-(cyclopropanecarbonyl)piperazin-1-yl)(7-(3,4-dimethoxyphenyl)pyrazolo[1,5-a]pyrimidin-2-yl)methanone] | 200 to 2000 nM |
| COC(=O)c1ccc(NC(=O)c2cc3nccc(-c4ccc(OC)c(OC)c4)n3n2)c(Cl)c1 [Compound 104, methyl 3-chloro-4-(7-(3,4-dimethoxyphenyl)pyrazolo [1,5-a]pyrimidine-2-carboxamido)benzoate] | ≥ 2000 nM |
| COC(=O)c1ccc(NC(=O)c2cc3nccc(-c4ccc(Cl)c(Cl)c4)n3n2)cc1 [Compound 40, methyl 4-(7-(3,4-dichlorophenyl)pyrazolo [1,5-a]pyrimidine-2-carboxamido) benzoate] | ≥ 2000 nM |
| COc1ccc(-c2ccnc3cc(C(=O)Nc4ccc(OC(=O)[C@@H](N)C(C)C)cc4)nn23)cc1OC [Compound 172, 4-(7-(3,4-dimethoxyphenyl)pyrazolo[1,5-a]pyrimidine-2-carboxamido) phenyl L-valinate] | < 200 nM |
| COc1ccc(-c2ccnc3cc(C(=O)NC45CC(C(=O)N6CCNCC6)(C4)C5)nn23)cc1OC [Compound 98, 7-(3,4-dimethoxyphenyl)-N-(3-(piperazine-1-carbonyl)bicyclo [1.1.1]pentan-1-yl)pyrazolo[1,5-a] pyrimidine-2-carboxamide] | ≥ 2000 nM |
| COc1ccc(-c2ccnc3cc(C(=O)Nc4ccc(C(=O)NCCN(C)C)cc4)nn23)cc1OC [Compound 118, 7-(3,4-dimethoxyphenyl)-N-(4-((2-(dimethylamino)ethyl)carbamoyl)phenyl) pyrazolo[1,5-a]pyrimidine-2-carboxamide] | ≥ 2000 nM |
| COc1ccc(-c2ccnc3cc(C(=O)N4CCN(C5CC5)CC4)nn23)cc1OC [Compound 184, (4-cyclopropylpiperazin-1-yl)(7-(3,4-dimethoxyphenyl)pyrazolo [1,5-a]pyrimidin-2-yl)methanone] | 200 to 2000 nM |
| COc1ccc(-c2ccnc3cc(C(=O)NC45CC(C(=O)OCCCN6CCOCC6)(C4)C5)nn23)cc1OC [Compound 199, 3-morpholinopropyl 3-(7-(3,4-dimethoxyphenyl)pyrazolo [1,5-a]pyrimidine-2-carboxamido)bicyclo[1.1.1] pentane-1-carboxylate] | 200 to 2000 nM |
| COc1ccc(-c2ccnc3cc(C(=O)Nc4ccc(C(=O)N[C@@H](Cc5ccccc5)C(=O)O)cc4)nn23)cc1OC [Compound 49, (4-(7-(3,4-dimethoxyphenyl)pyrazolo[1,5-a]pyrimidine-2-carboxamido)benzoyl)-L-phenylalanine] | 200 to 2000 nM |
| COc1ccc(-c2ccnc3cc(C(=O)Nc4ccc(N5CCN(C)CC5)cc4)nn23)cc1OC [Compound 193, 7-(3,4-dimethoxyphenyl)-N-(4-(4-methylpiperazin-1-yl)phenyl)pyrazolo[1,5-a]pyrimidine-2-carboxamide] | < 200 nM |
| COc1ccc(-c2ccnc3cc(C(=O)N4CCN(C)CC4)nn23)cc1OC [Compound 101, (7-(3,4-dimethoxyphenyl)pyrazolo[1,5-a]pyrimidin-2-yl)(4-methylpiperazin-1-yl)methanone] | ≥ 2000 nM |
| COc1ccc(-c2ccnc3cc(C(=O)Nc4ccc(C(=O)N[C@H](C)C(=O)O)cc4)nn23)cc1OC [Compound 89, (4-(7-(3,4-dimethoxyphenyl)pyrazolo[1,5-a]pyrimidine-2-carboxamido)benzoyl)-D-alanine] | ≥ 2000 nM |
| COc1ccc(-c2ccnc3cc(C(=O)Nc4ccc(OCC(=O)O)cc4)nn23)cc1OC [Compound 35, 2-(4-(7-(3,4-dimethoxyphenyl)pyrazolo[1,5-a]pyrimidine-2-carboxamido)phenoxy)acetic acid] | ≥ 2000 nM |

Now from value to compound:

| EC50 | Structure (SMILES) |
| --- | --- |
| ≥ 2000 nM | COc1ccc(-c2ccnc3cc(C(=O)N(C)c4ccc(C(=O)N5CCN(C)CC5)cc4)nn23)cc1OC [Compound 248, 7-(3,4-dimethoxyphenyl)-N-methyl-N-(4-(4-methylpiperazine-1-carbonyl)phenyl)pyrazolo [1,5-a]pyrimidine-2-carboxamide] |
| ≥ 2000 nM | COc1ccc(-c2ccnc3cc(C(=O)N[C@H]4CC[C@@H](C(=O)N5CCN(C)CC5)CC4)nn23)cc1OC [Compound 240, 7-(3,4-dimethoxyphenyl)-N-((1S,4S)-4-(4-methylpiperazine-1-carbonyl)cyclohexyl) pyrazolo[1,5-a]pyrimidine-2-carboxamide] |
| 200 to 2000 nM | COc1ccc(C(=O)N2CCN(C(=O)c3cc4nccc(-c5ccc(OC)c(OC)c5)n4n3)C[C@@H]2C)cc1 [Compound 319, (S)-(7-(3,4-dimethoxyphenyl)pyrazolo[1,5-a]pyrimidin-2-yl)(4-(4-methoxybenzoyl)-3-methylpiperazin-1-yl) methanone] |
| ≥ 2000 nM | COc1ccc(-c2ccnc3cc(NC(=O)C45CCC(N6CCOCC6)(CC4)CC5)nn23)cc1OC [Compound 288, N-(7-(3,4-dimethoxyphenyl)pyrazolo[1,5-a]pyrimidin-2-yl)-4-morpholinobicyclo[2.2.2]octane-1-carboxamide] |
| < 200 nM | COc1ccc(-c2ccnc3cc(C(=O)Nc4ccc(C(=O)N5CCC(N6CCOCC6)CC5)cc4F)nn23)cc1OC [Compound 349, 7-(3,4-dimethoxyphenyl)-N-(2-fluoro-4-(4-morpholinopiperidine-1-carbonyl)phenyl)pyrazolo [1,5-a]pyrimidine-2-carboxamide] |
| < 200 nM | COc1ccc(-c2ccnc3cc(C(=O)Nc4ccc(N5CCNCC5)cn4)nn23)cc1OC [Compound 286, 7-(3,4-dimethoxyphenyl)-N-(5-(piperazin-1-yl)pyridin-2-yl)pyrazolo [1,5-a]pyrimidine-2-carboxamide] |
| < 200 nM | COc1ccc(-c2ccnc3cc(C(=O)Nc4ccc(N5CCOCC5)cc4F)nn23)cc1OC [Compound 311, 7-(3,4-dimethoxyphenyl)-N-(2-fluoro-4-morpholinophenyl) pyrazolo[1,5-a]pyrimidine-2-carboxamide] |
| 200 to 2000 nM | COc1ccc(-c2ccnc3cc(C(=O)N4CCc5cc(C(=O)N6CCN(C)CC6)ccc54)nn23)cc1OC [Compound 250, (7-(3,4-dimethoxyphenyl)pyrazolo[1,5-a]pyrimidin-2-yl)(5-(4-methylpiperazine-1-carbonyl)indolin-1-yl) methanone] |
| 200 to 2000 nM | COc1ccc(-c2ccnc3cc(C(=O)N4CCN(C(=O)OC(C)(C)C)[C@H](C)C4)nn23)cc1OC [Compound 321, tert-butyl (R)-4-(7-(3,4-dimethoxyphenyl)pyrazolo [1,5-a]pyrimidine-2-carbonyl)-2-methylpiperazine-1-carboxylate] |
| < 200 nM | COc1ccc(-c2ccnc3cc(C(=O)Nc4ccc(Br)cc4)nn23)cc1OC [Compound 268, N-(4-bromophenyl)-7-(3,4-dimethoxyphenyl)pyrazolo [1,5-a]pyrimidine-2-carboxamide] |
| ≥ 2000 nM | CCOc1ccc(NC(=O)c2cc3nccc(-c4cc(OC)cc(OC)c4)n3n2)cc1 [Compound 315, 7-(3,5-dimethoxyphenyl)-N-(4-ethoxyphenyl)pyrazolo [1,5-a]pyrimidine-2-carboxamide] |
| 200 to 2000 nM | COc1ccc(-c2ccnc3cc(C(=O)Nc4ccc(OC)c(F)c4F)nn23)cc1OC [Compound 326, N-(2,3-difluoro-4-methoxyphenyl)-7-(3,4-dimethoxyphenyl)pyrazolo [1,5-a]pyrimidine-2-carboxamide] |
| 200 to 2000 nM | COc1ccc(-c2ccnc3cc(C(=O)NCc4ccc(N5CCOCC5)cc4)nn23)cc1OC [Compound 246, 7-(3,4-dimethoxyphenyl)-N-(4-morpholinobenzyl)pyrazolo [1,5-a]pyrimidine-2-carboxamide] |
| < 200 nM | COc1ccc(-c2ccnc3cc(C(=O)Nc4ccc(C(=O)OCCN5CCN(C(=O)OC(C)(C)C)CC5)cc4)nn23)cc1OC [Compound 275, tert-butyl 4-(2-((4-(7-(3,4-dimethoxyphenyl)pyrazolo [1,5-a]pyrimidine-2-carboxamido)benzoyl)oxy)ethyl)piperazine-1-carboxylate] |
| ≥ 2000 nM | CCOc1ccc(NC(=O)c2cc3nccc(-c4ccc5c(c4)CCO5)n3n2)cc1 [Compound 313, 7-(2,3-dihydrobenzofuran-5-yl)-N-(4-ethoxyphenyl)pyrazolo [1,5-a]pyrimidine-2-carboxamide] |
| < 200 nM | CCN1CCN(c2ccc(NC(=O)c3cc4nccc(-c5ccc(OC)c(OC)c5)n4n3)cc2)CC1 [Compound 270, 7-(3,4-dimethoxyphenyl)-N-(4-(4-ethylpiperazin-1-yl)phenyl)pyrazolo[1,5-a]pyrimidine-2-carboxamide] |
